Laboratory results taken from publication PMC10762035, “Molecular basis of human trace amine-associated receptor 1 activation” (Nature Communications, 2024).
Substitutions are numbered along the chain they refer to. Several values for one entry are separate records, joined by “and”; a condition that tells them apart may be missing. Equal values may be shown once. Read-outs that look alike come from different tables or passages of the source.

What was measured:
hTA1 T194A = target: T1, hTA1 T194A (Homo sapiens, UniProt Q96RJ0, T194A); experiment: GloSensor cAMP accumulation assay, T194A mutant
T1 sequence (Q96RJ0 1-339 T194A): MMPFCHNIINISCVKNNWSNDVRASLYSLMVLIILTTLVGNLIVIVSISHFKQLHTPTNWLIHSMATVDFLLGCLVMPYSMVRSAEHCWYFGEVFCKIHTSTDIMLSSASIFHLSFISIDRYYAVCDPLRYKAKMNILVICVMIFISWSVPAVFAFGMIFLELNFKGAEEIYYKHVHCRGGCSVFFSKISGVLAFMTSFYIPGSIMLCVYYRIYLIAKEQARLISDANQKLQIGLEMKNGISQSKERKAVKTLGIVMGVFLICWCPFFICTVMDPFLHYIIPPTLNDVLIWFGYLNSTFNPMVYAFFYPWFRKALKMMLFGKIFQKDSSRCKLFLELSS

hTA1 T271A = target: T2, hTA1 T271A (Homo sapiens, UniProt Q96RJ0, T271A); experiment: GloSensor cAMP accumulation assay, T271A mutant; format: cell-based
T2 construct: expressed in transfected cells; host or cells: HEK293T
T2 sequence (Q96RJ0 1-339 T271A): T1 sequence (Q96RJ0 1-339 T194A) with A194T, T271A

hTA1 I290Y = target: T3, hTA1 I290Y (Homo sapiens, UniProt Q96RJ0, I290Y); experiment: GloSensor cAMP accumulation assay, I290Y mutant; format: cell-based; conditions: for Normalized Luminescence Counts for Concentration Response Curves: I120Y, log[Agonist], single replicates
T3 construct: expressed in transfected cells; host or cells: HEK293T
T3 sequence (Q96RJ0 1-339 I290Y): T1 sequence (Q96RJ0 1-339 T194A) with A194T, I290Y

hTA1 C88S = target: T4, hTA1 C88S (Homo sapiens, UniProt Q96RJ0, C88S); experiment: GloSensor cAMP accumulation assay, C88S mutant; format: cell-based; conditions: for Normalized Luminescence Counts: C88S (N=2), log[Agonist]
T4 construct: expressed in transfected cells; host or cells: HEK293T
T4 sequence (Q96RJ0 1-339 C88S): T1 sequence (Q96RJ0 1-339 T194A) with C88S, A194T

## CN1CC2c3ccccc3Oc3ccc(Cl)cc3C2C1 (stereo not drawn) [asenapine]
hTA1 T194A; EC50, T194A
  EC50: 540 nM
hTA1 T194A; T194A, Mean of one experiment
  Emax values of Asenapine: 80.8072
hTA1 T194A; hTA1 T194A mutant vs WT average, Figure 6B, each line is one experiment (3 replicates)
  ΔEmax values (each mutant value - WT average), T194A, Mean: 2.977 and -7.9001
hTA1 T194A; pEC50 values of Asenapine, T194A, Mean of one experiment
  EC50: 383 nM and 477 nM
hTA1 T194A; pEC50 ± SEM, T194A
  EC50: 457 nM
hTA1 T194A; read-out: Emax values of Asenapine, T194A, Mean of one experiment
  Emax: 91.7%
hTA1 T194A; read-out: Span ± SEM (Emax normalized to β-PEA), T194A
  Emax: 120%
hTA1 T271A; T271A
  reduction in potency vs wild type: roughly 4 fold
hTA1 T271A; T271A, Mean of one experiment
  Emax values of Asenapine: 88.882
hTA1 T271A; T271A, Mean of one experiment, read-out: Emax values of Asenapine
  Emax: 101%
hTA1 T271A; T271A, Mean of one experiment, read-out: pEC50 values of Asenapine (converted)
  EC50: 1300 nM and 1020 nM
hTA1 T271A; T271A, n=2, read-out: EC50
  EC50: 1150 nM
hTA1 T271A; T271A, n=2, read-out: Span ± SEM (Emax normalized to β-PEA)
  Emax: 94.8 ± 5.91%
hTA1 T271A; hTA1 T271A mutant vs WT average, Figure 6B, each line is one experiment (3 replicates)
  ΔEmax values (each mutant value - WT average), T271A, Mean: 11.9925 and 0.1748
hTA1 I290Y; M -7
  Normalized Luminescence Counts for Concentration Response Curves: 15.0486 and 28.2836 and 14.433 and 14.2815 and 11.35 and 10.6171 and 4.9397 and 9.4516 and 7.196
hTA1 I290Y; M -7.522
  Normalized Luminescence Counts for Concentration Response Curves: 3.6603 and 8.277 and 2.121 and 8.052 and 3.288 and 0.7233 and -1.828 and 2.684 and 1.556
hTA1 I290Y; M -8
  Normalized Luminescence Counts for Concentration Response Curves: 2.121 and 5.507 and 1.506 and 4.021 and -2.208 and 3.288 and -1.828 and -2.956 and -5.212
hTA1 I290Y; M -8.522
  Normalized Luminescence Counts for Concentration Response Curves: -2.188 and 0.2746 and -1.264 and -1.842 (2×) and -4.04 and -6.34 and -5.212 (2×)
hTA1 I290Y; M -9
  Normalized Luminescence Counts for Concentration Response Curves: -1.572 and -0.6488 and -1.264 and -5.506 and -1.109 and -5.873 and -4.0841 and -5.212 (2×)
hTA1 I290Y; M -9.522
  Normalized Luminescence Counts for Concentration Response Curves: -3.419 and -1.264 and -3.7267 and -3.674 and -1.109 and -6.239 and -5.212 (2×) and -4.0841
hTA1 I290Y; M -10
  Normalized Luminescence Counts for Concentration Response Curves: -2.496 and -2.188 and -2.803 and -2.575 and 2.189 and 2.922 and -4.0841 and -1.828 and -2.956
hTA1 I290Y; M -10.522
  Normalized Luminescence Counts for Concentration Response Curves: -1.88 (2×) and -1.264 and -6.605 (2×) and -3.307 and -1.828 (2×) and -0.7002
hTA1 I290Y; M -11
  Normalized Luminescence Counts for Concentration Response Curves: -2.188 and -1.88 and -2.496 and -2.575 and -5.506 and -7.705 and -6.34 and -4.0841 and -5.212
hTA1 I290Y; M -11.522
  Normalized Luminescence Counts for Concentration Response Curves: -2.188 and -1.264 (2×) and -1.475 and -4.773 and -4.407 and -4.0841 (2×) and -2.956
hTA1 I290Y; M -12
  Normalized Luminescence Counts for Concentration Response Curves: -3.111 and -2.496 and -2.188 and -5.873 and -5.14 and -2.941 and -1.828 and -2.956 and -4.0841
hTA1 I290Y; M -12.522
  Normalized Luminescence Counts for Concentration Response Curves: -3.7267
hTA1 I290Y; I290Y, Mean of one experiment
  Emax values of Asenapine: 56.131 and 42.2396
hTA1 I290Y; I290Y, Mean of one experiment, read-out: Emax values of Asenapine
  Emax: 54.9%
hTA1 I290Y; I290Y, Mean of one experiment, read-out: pEC50 values of Asenapine (converted)
  EC50: 252 nM and 215 nM and 383 nM
hTA1 I290Y; I290Y, read-out: EC50
  EC50: 275 nM
hTA1 I290Y; I290Y, read-out: Span ± SEM (Emax normalized to β-PEA)
  Emax: 51.1 ± 4.43%
hTA1 I290Y; I290Y, relative to β-PEA, read-out: Emax
  Emax: 51.1%
hTA1 I290Y; hTA1 I290Y mutant vs WT average, Figure 6B, each line is one experiment (3 replicates)
  ΔEmax values (each mutant value - WT average), I290Y, Mean: -33.855 and -32.5762 and -46.4677
hTA1 C88S; Asenapine, M -5
  Normalized Luminescence Counts: 78.2534 and 81.5764 and 79.8011 and 111.871 and 108.238 and 123.304
hTA1 C88S; Asenapine, M -5.522
  Normalized Luminescence Counts: 94.436 and 87.9948 and 83.989 and 130.463 and 114.596 and 122.075
hTA1 C88S; Asenapine, M -6
  Normalized Luminescence Counts: 79.8011 and 74.9077 and 70.7881 and 118.656 and 108.719 and 100.545
hTA1 C88S; Asenapine, M -6.522
  Normalized Luminescence Counts: 57.5416 and 54.7649 and 49.5528 and 65.7127 and 60.6375 and 65.5525
hTA1 C88S; Asenapine, M -7
  Normalized Luminescence Counts: 23.993 and 22.8778 and 24.6531 and 32.3228 and 28.1557 and 35.9556
hTA1 C88S; Asenapine, M -7.522
  Normalized Luminescence Counts: 10.9969 and 9.859 and 9.563 and 7.801 and 8.763 and 9.724
hTA1 C88S; Asenapine, M -8
  Normalized Luminescence Counts: 6.65 and 6.24 and 5.148 and 4.382 and 5.237 and 6.305
hTA1 C88S; C88S, Asenapine
  ΔpEC50 values (each mutant value - WT average), Mean: -0.4947 and -0.3839
hTA1 C88S; C88S, Asenapine, per experiment, 3 replicates
  Emax values, Mean: 126.964 and 89.044
hTA1 C88S; C88S, Asenapine, per experiment, 3 replicates, read-out: pEC50 values Mean (converted)
  EC50: 270 nM and 210 nM
hTA1 C88S; C88S, n=2, read-out: EC50
  EC50: 238 nM
hTA1 C88S; C88S, relative to β-PEA, read-out: Emax
  Emax: 108%
